Laboratory results: patent publication US5393742A, “Preparation for treating renal disease” (MECT Corporation, priority 1990, dated 1995)

System: Male ddy mice
Experiment: Simplified acute toxicity test of N-acetylneuraminates in mice by intravenous injection
Type: in vivo
Settings: for Deaths (in words): 1,000 and 2,000 mg/kg i.v.
Protocol: Simplified acute toxicity test:
A simplified acute toxicity test of N-acetylneuraminates in mice by intravenous injection was carried out as follows.
Lithium-, potassium-, barium- and magnesium- salts of N-acetylneuraminic acid were used (all were from MECT Corporation).
Body weights at the start of the test: 17.7-21.1 g
The number of animals at each level: 3 mice
(3) Room temperature: 23±1° C. - Humidity: 55±7%
The above-mentioned test compounds were dissolved in physiological saline solution to make a 0.2 ml solution per 20 g of body weight in a mouse as an injection fluid and injected into the tail vein. The doses were 500, 1,000 and 2,000 mg/kg.

| SMILES | The number of deaths per day course (500 mg/kg i.v., 1 hrs) | The number of deaths per day course (500 mg/kg i.v., 3 hrs) | The number of deaths per day course (500 mg/kg i.v., 6 hrs) | The number of deaths per day course (500 mg/kg i.v., 24 hrs) | The number of deaths per day course (500 mg/kg i.v., 2 days) | The number of deaths per day course (500 mg/kg i.v., 3 days) | The number of deaths per day course (500 mg/kg i.v., 4 days) | The number of deaths per day course (500 mg/kg i.v., 5 days) | The number of deaths per day course (500 mg/kg i.v., 6 days) | Final Lethality (500 mg/kg i.v., 7 days) | The number of deaths per day course (500 mg/kg i.v., 7 days) | Final Lethality (1000 mg/kg i.v., 7 days) | Final Lethality (2000 mg/kg i.v., 7 days) | Deaths (in words) | further results |
| --- | --- | --- | --- | --- | --- | --- | --- | --- | --- | --- | --- | --- | --- | --- | --- |
| CC(=O)N[C@H]1[C@H]([C@H](O)[C@H](O)CO)OC(O)(C(=O)O)C[C@@H]1O (stereo partly drawn) [Magnesium N-acetylneuraminate] | 0 | 0 | 0 | 0 | 0 | 0 | 0 | 0 | 0 | 0/3 | 0 | 3/3 | 3/3 | all of the 3 mice died | – |
| CC(=O)N[C@H]1[C@H]([C@H](O)[C@H](O)CO)OC(O)(C(=O)[O-])C[C@@H]1O.[K+] (stereo partly drawn) [Potassium N-acetylneuraminate] | 0 | 0 | 0 | 0 | 0 | 0 | 0 | 0 | 0 | 0/3 | 0 | 3/3 | 3/3 | all of the 3 mice died | The number of deaths per day course (1000 mg/kg i.v., 7 days): 0; The number of deaths per day course (1000 mg/kg i.v., 1 hrs): 3; The number of deaths per day course (1000 mg/kg i.v., 3 hrs): 0; The number of deaths per day course (1000 mg/kg i.v., 6 hrs): 0; The number of deaths per day course (1000 mg/kg i.v., 24 hrs): 0; The number of deaths per day course (1000 mg/kg i.v., 2 days): 0; The number of deaths per day course (1000 mg/kg i.v., 3 days): 0; The number of deaths per day course (1000 mg/kg i.v., 4 days): 0; The number of deaths per day course (1000 mg/kg i.v., 5 days): 0; The number of deaths per day course (1000 mg/kg i.v., 6 days): 0; The number of deaths per day course (2000 mg/kg i.v., 7 days): 0; The number of deaths per day course (2000 mg/kg i.v., 1 hrs): 3; The number of deaths per day course (2000 mg/kg i.v., 3 hrs): 0; The number of deaths per day course (2000 mg/kg i.v., 6 hrs): 0; The number of deaths per day course (2000 mg/kg i.v., 24 hrs): 0; The number of deaths per day course (2000 mg/kg i.v., 2 days): 0; The number of deaths per day course (2000 mg/kg i.v., 3 days): 0; The number of deaths per day course (2000 mg/kg i.v., 4 days): 0; The number of deaths per day course (2000 mg/kg i.v., 5 days): 0; The number of deaths per day course (2000 mg/kg i.v., 6 days): 0 |
